Patent US12459922B2 (Gilead Sciences, Inc., priority 2022, dated 2025)

System: endogenous cellular STAT1 (phosphorylated at Tyr701) in NCI-H1373 cells
Assay: Phospho-STAT1 (Tyr701) LANCE Ultra TR-FRET Detection Assay
Format: cell-based
Details: Homo sapiens, NCI-H1373, 48 h, phospho-STAT1 (Tyr701) induction, read-out: NH1373 pSTAT1 EC50
Method: Phospho-STAT1 (Tyr701 LANCE Ultra TR-FRET Detection Assay
d. LANCE Ultra phospho-STAT1 (Tyr701) kits are designed for the detection of phosphorylated STAT1 in cell lysates using a simple, homogeneous LANCE Ultra sandwich assay (Cat. #TRF4028M). This assay is intended for assessing compound induction of endogenous levels of cellular STAT1 (phosphorylated at Tyr701) in NCI-H1373 cells. The NCI-H1373 cells are cultured in RPMI 1640 media containing 10% heat inactivated FBS, GlutaMAX, 1% Penicillin-Streptomycin. An Echo acoustic liquid handler is used to transfer 60 nanoliters of compound dilutions using the Echo Qualified, 384-well polypropylene microplate clear flat bottom source plates into a Greiner (#781080) cell culture microplate. NCI-H1373 cells are seeded into these compound-spotted culture plates at 30,000 cells/well in a 60 uL volume in growth media. The plates are incubated in a 5% CO2 humidified incubator at 37° C. for 48 hours. […] After spinning the plate down at 300 rpm for 1 min, the plate is read on an EnVision plate reader set up for Eu3+ Cryptate and fluorescence emission is measured at two different wavelengths (665 nm and 620 nm). The HTRF ratio is then calculated […] for each well to determine the amount of pSTAT1 in the cell lysate, and the data is then normalized to 10 uM GS-1154611 positive and DMSO negative controls.

Row | EC50 | Compound
1 | 317 nM | Cc1cnc(-c2cc3ncn(CCC[C@H](C)Nc4cn[nH]c(=O)c4C(F)(F)F)c(=O)c3cc2F)nc1N [Example 78, (S)-7-(4-amino-5-methylpyrimidin-2-yl)-6-fluoro-3-(4-((6-oxo-5-(trifluoromethyl)-1,6-dihydropyridazin-4-yl)amino)pentyl)quinazolin-4(3H)-one]
2 | 1500 nM | Cc1cnc(N)nc1-c1cc2ncn(CCC[C@H](C)Nc3cn[nH]c(=O)c3C(F)(F)F)c(=O)c2cc1F [Example 79, (S)-7-(2-amino-5-methylpyrimidin-4-yl)-6-fluoro-3-(4-((6-oxo-5-(trifluoromethyl)-1,6-dihydropyridazin-4-yl)amino)pentyl)quinazolin-4(3H)-one]
3 | 63.4 nM | C[C@@H](CCCn1cnc2cc(-c3ncc(C(F)F)cn3)c(F)cc2c1=O)Nc1cn[nH]c(=O)c1C(F)(F)F [Example 82, (S)-7-(5-(difluoromethyl)pyrimidin-2-yl)-6-fluoro-3-(4-((6-oxo-5-(trifluoromethyl)-1,6-dihydropyridazin-4-yl)amino)pentyl)quinazolin-4(3H)-one]
4 | 58.2 nM | C[C@@H](CCCn1cnc2cc(-c3ncc(C4CC4)cn3)c(F)cc2c1=O)Nc1cn[nH]c(=O)c1C(F)(F)F [Example 83, (S)-7-(5-cyclopropylpyrimidin-2-yl)-6-fluoro-3-(4-((6-oxo-5-(trifluoromethyl)-1,6-dihydropyridazin-4-yl)amino)pentyl)quinazolin-4(3H)-one]

Second part, the compound before the results:

Row | Compound | EC50
5 | C[C@@H](CCCn1ccc2cc(-c3ccc(C(F)(F)CO)cn3)c(F)cc2c1=O)Nc1cn[nH]c(=O)c1C(F)(F)F [Example 75, 6-[5-(1,1-difluoro-2-hydroxy-ethyl)-2-pyridyl]-7-fluoro-2-[(4S)-4-[[6-oxo-5-(trifluoromethyl)-1H-pyridazin-4-yl]amino]pentyl]isoquinolin-1-one] | 54.2 nM
6 | Cc1cnc(-c2cc3ccn(CCC[C@H](C)Nc4cn[nH]c(=O)c4C(F)(F)F)c(=O)c3c(F)c2F)nc1N [Example 77, (S)-6-(4-amino-5-methylpyrimidin-2-yl)-7,8-difluoro-2-(4-((6-oxo-5-(trifluoromethyl)-1,6-dihydropyridazin-4-yl)amino)pentyl)isoquinolin-1(2H)-one] | 13.5 nM
7 | Cc1cnc(N)nc1-c1cc2ccn(CCC[C@H](C)Nc3cn[nH]c(=O)c3C(F)(F)F)c(=O)c2c(F)c1F [Example 80, (S)-6-(2-amino-5-methylpyrimidin-4-yl)-7,8-difluoro-2-(4-((6-oxo-5-(trifluoromethyl)-1,6-dihydropyridazin-4-yl)amino)pentyl)isoquinolin-1(2H)-one] | 479 nM
8 | C[C@@H](CCCn1ccc2cc(-c3ncc(C(F)(F)F)c(N)n3)c(F)c(F)c2c1=O)Nc1cn[nH]c(=O)c1C(F)(F)F [Example 81, (S)-6-(4-amino-5-(trifluoromethyl)pyrimidin-2-yl)-7,8-difluoro-2-(4-((6-oxo-5-(trifluoromethyl)-1,6-dihydropyridazin-4-yl)amino)pentyl)isoquinolin-1(2H)-one] | 4.26 nM
9 | C[C@@H](CCCn1ccc2cc(-c3ncc(S(C)(=O)=O)cn3)c(F)cc2c1=O)Nc1cn[nH]c(=O)c1C(F)(F)F [Example 84, (S)-7-fluoro-6-(5-(methylsulfonyl)pyrimidin-2-yl)-2-(4-((6-oxo-5-(trifluoromethyl)-1,6-dihydropyridazin-4-yl)amino)pentyl)isoquinolin-1(2H)-one] | 263 nM
10 | O=c1[nH]ncc(NCCCCn2ccc3cc(-c4ncc(C(F)(F)F)cn4)c(F)c(F)c3c2=O)c1C(F)(F)F [Example 85, 7,8-difluoro-2-(4-((6-oxo-5-(trifluoromethyl)-1,6-dihydropyridazin-4-yl)amino)butyl)-6-(5-(trifluoromethyl)pyrimidin-2-yl)isoquinolin-1(2H)-one] | 113 nM
11 | O=c1[nH]ncc(N[C@@H](CO)CCCn2ccc3cc(-c4ncc(C(F)(F)F)cn4)c(F)cc3c2=O)c1C(F)(F)F [Example 88, 7-fluoro-2-[(4R)-5-hydroxy-4-[[6-oxo-5-(trifluoromethyl)-1H-pyridazin-4-yl]amino]pentyl]-6-[5-(trifluoromethyl)pyrimidin-2-yl]isoquinolin-1-one] | 86.2 nM
